Results published in patent publication US9920013B2, “2,5-dioxoimidazolidin-1-yl-3-urea derivatives as formyl peptide modulators” (Allergan, Inc., priority 2014, dated 2018).

Molecular target: T1, FPR2 (Homo sapiens, UniProt P25090)
T1 construct: expressed in transfected cells
T1 sequence (P25090 1-351): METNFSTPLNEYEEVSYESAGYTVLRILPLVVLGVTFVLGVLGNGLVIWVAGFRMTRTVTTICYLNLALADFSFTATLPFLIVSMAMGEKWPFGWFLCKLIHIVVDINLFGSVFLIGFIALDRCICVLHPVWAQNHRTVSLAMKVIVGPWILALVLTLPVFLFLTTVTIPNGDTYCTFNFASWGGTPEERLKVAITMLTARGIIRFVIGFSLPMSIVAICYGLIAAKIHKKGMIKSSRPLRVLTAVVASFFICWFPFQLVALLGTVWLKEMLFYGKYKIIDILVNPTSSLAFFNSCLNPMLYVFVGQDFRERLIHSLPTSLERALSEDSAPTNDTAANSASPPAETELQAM
Assay: FPR2 calcium activity assay on FLIPR Tetra in CHO-Gα16 cells stably expressing FPR2
Type: cell-based
Details: for EC50: compound-induced calcium activity, 0.61 to 10,000 nM
Description: CHO-Gα16 cells stably expressing FPR2 were cultured in F12 media (10% FBS, 1% PSA, 400 μg/ml geneticin and 50 μg/ml hygromycin). In general, the day before the experiment, 18,000 cells/well were plated in a 384-well clear bottom poly-D-lysine coated plate. The following day the screening compound-induced calcium activity was assayed on a FLIPR^Tetra. The drug plates were prepared in 384-well microplates using EP3 and MultiPROBE robotic liquid handling systems. Compounds were tested at concentrations ranging from 0.61 to 10,000 nM. Results are expressed as EC50 (nM) and % efficacy values.

`CC(=O)NCCNC(=O)CC1(C(C)C)NC(=O)N(NC(=O)Nc2ccc(Br)cc2)C1=O` (stereo not drawn) [Compound 1, N-[2-(Acetylamino)ethyl]-2-[1-{[(4-Bromophenyl)carbamoyl]amino}-2,5-dioxo-4-(propan-2-yl)imidazolidin-4-yl]acetamide] was tested. Which “FPR2 Gα16-CHO (%eff)” value did it give?
The value was “(0.94)”.

And the EC50?
Its EC50 is 6 nM.

For `CC(=O)OCCNC(=O)CC1(C(C)C)NC(=O)N(NC(=O)Nc2ccc(Br)cc2F)C1=O` (stereo not drawn) [Compound 2, 2-({[1-{[(4-Bromo-2-Fluorophenyl)carbamoyl]amino}-2,5-dioxo-4-(propan-2-yl)imidazolidin-4-yl]acetyl}amino)ethyl acetate], which “FPR2 Gα16-CHO (%eff)” value is on record?
Its value is “(0.94)”.

What about the EC50 of the same compound?
Its EC50 is 4 nM.

Which results are given for `CC(=O)OCCNC(=O)CC1(C(C)C)NC(=O)N(NC(=O)Nc2ccc(Br)cc2)C1=O` (stereo not drawn) [Compound 3, 2-({[1-{[(4-Bromophenyl)carbamoyl]amino}-2,5-Dioxo-4-(propan-2-yl)imidazolidin-4-yl]acetyl}amino)ethyl acetate]?
FPR2 Gα16-CHO (%eff): (0.97); EC50: 10 nM
